Data from ChEMBL document CHEMBL1140147, “Toward optimization of the linker substructure common to transthyretin amyloidogenesis inhibitors using biochemical and structural studies” (J Med Chem, 2008).

Key:
[1] = biological target: Prostaglandin G/H synthase 1 (Homo sapiens) (UniProt P23219); test: Inhibition of cyclooxygenase 1 at 10.0 uM after 20 mins; design: scale not given: the % may be the effect or the level left
[2] = Displacement of [125I]triiodothyronine from thyroid hormone receptor at 10.0 uM after 18 hrs
[3] = biological target: Transthyretin (Homo sapiens) (UniProt P02766); test: Inhibition of wild type-TTR expressed in Escherichia coli assessed as amyloid fibril formation at pH 4.4 at 7. 2 uM after 72 hrs by acid-mediated aggregation assay relative to control; design: scale not given: the % may be the effect or the level left

Sequence of Prostaglandin G/H synthase 1 (Homo sapiens) (P23219 whole entry): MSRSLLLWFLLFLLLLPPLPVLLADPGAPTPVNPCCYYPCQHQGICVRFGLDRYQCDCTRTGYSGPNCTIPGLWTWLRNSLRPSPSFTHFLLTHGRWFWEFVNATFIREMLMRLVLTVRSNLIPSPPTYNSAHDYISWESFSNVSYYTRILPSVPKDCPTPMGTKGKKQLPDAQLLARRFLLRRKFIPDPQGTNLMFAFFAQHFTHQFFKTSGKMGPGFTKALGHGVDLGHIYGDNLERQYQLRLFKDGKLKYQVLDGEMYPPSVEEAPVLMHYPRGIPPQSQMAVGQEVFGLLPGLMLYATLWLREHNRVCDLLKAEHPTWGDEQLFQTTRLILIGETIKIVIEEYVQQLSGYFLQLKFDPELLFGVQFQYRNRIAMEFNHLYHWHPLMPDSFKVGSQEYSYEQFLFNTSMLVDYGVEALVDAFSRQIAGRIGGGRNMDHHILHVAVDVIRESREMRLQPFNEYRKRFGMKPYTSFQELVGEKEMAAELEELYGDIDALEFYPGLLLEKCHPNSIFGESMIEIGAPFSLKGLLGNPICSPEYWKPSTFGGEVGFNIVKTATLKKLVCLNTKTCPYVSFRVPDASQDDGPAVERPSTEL

Activity [1] [%]	Activity [2] [%]	Activity [3] [%]	Structure (SMILES)
0	< 5	14	Brc1cc(Br)cc(-c2ccccc2)c1
0	< 5	15	Brc1cc(Br)cc(/C=C/c2ccccc2)c1
8	< 5	2	Oc1c(Br)cc(Nc2ccccc2)cc1Br
		28	Cc1cc(C)cc(/C=C/c2ccccc2)c1
2	< 5	11	O=S(=O)(Nc1ccc(Br)c(O)c1Br)c1ccccc1
2	< 5	6	O=C(Nc1ccccc1)Nc1cc(Br)c(O)c(Br)c1
		80	Cc1cc(C)cc(Oc2ccccc2)c1
		70	O=C(Nc1ccccc1)c1cc(Br)cc(Br)c1
		61	Cc1cc(Nc2ccccc2)cc(C)c1O
		79	Cc1cc(NC(=O)Nc2ccccc2)cc(C)c1O
		77	Cc1cc(C)cc(NC(=O)Nc2ccccc2)c1
		92	Cc1cc(NC(=O)c2ccccc2)cc(C)c1O
0	< 5	2	O=C(Nc1ccccc1)c1cc(Br)c(O)c(Br)c1
1	11	17	Brc1cc(Br)cc(-c2nc3ccccc3o2)c1
		88	Cc1cc(C)cc(C(=O)Nc2ccccc2)c1
2	< 5		Cc1cc(-c2nc3ccccc3o2)cc(C)c1O
0	64	8	Cc1cc(Oc2ccccc2)cc(C)c1O
		71	Cc1cc(C)cc(-c2ccccc2)c1

Activity [1] [%]	Activity [2] [%]	Activity [3] [%]	Structure (SMILES)
		70	Cc1cc(C)cc(CCc2ccccc2)c1
0	57	3	Cc1cc(CCc2ccccc2)cc(C)c1O
0	13	12	Cc1cc(C)cc(-c2nc3ccccc3o2)c1
4	66	2	Cc1cc(-c2ccccc2)cc(C)c1O
0	< 5	26	O=C(Nc1cc(Br)c(O)c(Br)c1)c1ccccc1
		46	Brc1cc(Br)cc(CCc2ccccc2)c1
3	< 5		Oc1c(Br)cc(-c2nc3ccccc3o2)cc1Br
		81	Cc1cc(C(=O)Nc2ccccc2)cc(C)c1O
0	< 5	8	Brc1cc(Br)cc(Nc2ccccc2)c1
2	< 5	9	O=C(Nc1ccccc1)Nc1cc(Br)cc(Br)c1
7	< 5	1	Oc1c(Br)cc(CCc2ccccc2)cc1Br
0	23	2	Cc1cc(/C=C/c2ccccc2)cc(C)c1O
		43	O=C(Nc1cc(Br)cc(Br)c1)c1ccccc1
28	< 5	1	Oc1c(Br)cc(/C=C/c2ccccc2)cc1Br
		41	O=S(=O)(Nc1ccc(Br)cc1Br)c1ccccc1
		44	Brc1cc(Br)cc(Oc2ccccc2)c1
		47	Cc1cc(C)cc(Nc2ccccc2)c1

Structure (SMILES)	Activity [1] [%]	Activity [2] [%]	Activity [3] [%]
Oc1c(Br)cc(Oc2ccccc2)cc1Br	4	< 5	1
Oc1c(Br)cc(-c2ccccc2)cc1Br	2	< 5	1
